Values joined by “and” are separate entries in the source; they are usually repeats but may differ in a detail not shown here. Equal values may be shown once.
Key:
sheep red blood cells = test: Primary anti-sheep red blood cell antibody response in mice (plaque assay); format: in vivo, mouse; details: C57BL/6, + SRBC, day 6
Description: Compound 7 was tested to determine its effects on primary antibody response against sheep red blood cells in vivo. Mice (C57BL/6) in groups of 4 were injected intraperitoneally with 0.1% sheep red blood cell suspended in saline. At various times compound 7 in various concentrations was administered intraperitoneally.
^a Groups of four C57BL/6 mice were injected i.p. with 6.5 ×
10^6 SRBC and various doses of compound 7. The number of PFC to SRBC
(shown as mean ± SD) were determined on day 6 as described in Cheever.
For Table 9 the number of antibody cells was determined by the modified Jerne, Nordin plaque assay as disclosed in Jerne, N. K., Nordin, A. A., Science 140:405, 1963.

P388 = test: Mean life span and viable tumor cells of P388 inoculated mice, by delivery schedule; format: in vivo, mouse; details: qd; for Postinoculation Life Span: pooled 37, 62 or 104 mg/kg/injection; for Change in Life Span / Viable Cells Day 6: pooled doses
Description: In this example as summarized in table 30, different drug delivery regimen were utilized for compound 7 against P388 in the mouse and the postinoculation life span, the change in life span and the number of viable tumor cells at day 6 measured. For this test the data shown are pooled by schedule without regard for dosage. Each treatment group included a total of 15 mice divided into sub-groups of 5 mice treated respectively with 37, 62 or 104 mg/kg/injection of drug per sub-group. After treatment the test animals were monitored for survival.
^a P388 ascites cells (1 × 10^6) were implanted ip in
BDF1 female mice on day 0, and ip bolus injections of drug were
delivered once daily on the days indicated. The drug was delivered on the
basis of 0.01 ml/g mouse weight. Control mice received a 0.09% solution o
NaCl delivered on the same basis.

[1] = test system: Mastocytoma (P815) tumor cells; test: In vivo potentiation of cytotoxic lymphocytes activity against mastocytoma tumor cells; set-up: species or system mouse; details: for % Cytotoxicity: DBA/2 mice, compound 7 2 mg/mouse, interleukin-2 50 U per mouse
Description: ^a Ten mice in each group were inoculated with 2 × 10^6
tumor cells. After 5 hours, saline or nucleoside compound 7 solution (2
mg/mouse) was administered to each mouse. On days 3,5,7 or 9, spleen cell
were isolated and their cytotoxicity was determined against P815 tumor
cells as described in Gonzales and Sharma.
Compound 7 was tested to determine whether or not it can increase cytotoxic lymphocytes response against mastocytoma tumor cells. In the test mice were immunized with mastocytoma cells (P815) and after 5 hours compound 7 as a solution was given in a dose of […] per mouse.

K562 tumor cells = test: In vitro augmentation of human natural killer cell activity (PBMNC, 51Cr release); format: cell-based; set-up: % Increase in Induced Natural Killer Cell Activity: concentration or dose not given beside the values
Description: The natural killer cell activity in human cells was also measured. In conducting these tests peripheral blood mononuculear cells (PBMNC) were isolated on Ficoll-Hypaque gradient, washed three times in Hanks and re-suspended in RPMI-1640 containing 10% human AB serum as described in Rosenberg, S. A.: Journal American Medical Association, 256:3117, 1986 and the above referred to reference to Djeu, et al. Peripheral blood mononuclear cells (PBMNC) from eleven different donors were treated with compound 7 as described in Djeu, et al. as well as Sharma, B., Odom, L. F.: Cancer Immunol. Immunother. 7.93, 1979, and Sharma, B., Odom, L. F.: Cancer Research 44:3258, 1984.
The PBMNC cells were incubated with compound 7 at 37° C. for 20 to 68 hours in a 5% CO2 humid atmosphere and after incubation the cytotoxicity was determined against K562 tumor cells.
^a Peripheral blood mononuclear cells were treated with 0.05 - 0.4 mM
concentration of compound 7 in RPM11640 containing 10% human AB serum for
20 to 68 hours. After the treatment, effector cells were tested against
K562 target cells in 4 hour ^51 Cr release assay as described in
Sharma et al. above. The data shown here represent the maximum response.
K562 target cells in 4 hour ^51 Cr release assay as previously
described above in Sharma et al. The data represent the maximum response.
Other Nucleosides and Nucleotides of the invention were tested for their activity in human natural killer cells […] as per example 33 above.

Rat Coronavirus = test: Antiviral activity against rat coronavirus infection in suckling rats; format: in vivo; details: half daily doses at -24 and -18 h, of rats that died
Text: Four to five day old suckling rats were infected intranasally with rat coronavirus. One day previously a divided intraperitoneal dose of compound 7 or placebo was given. As shown in the following Table 19, a high percentage of the rats treated with compound 7 survived this lung infection. Further the rats that died lived longer than the placebo-treated controls.
^b Of rats that died. Survivors lived through 21 days.

YAC-1 tumor target cells = test: In vivo potentiation of natural killer cell activity in CBA/CaJ mice (spleen cells); details: for % Natural Killer Cytotoxicity: 1.68 mg/mouse i.p.
Description: After 1, 2, 3 and 4 days of treatment the spleens of the mice were harvested and the cytotoxic activity of the spleen cells was determined against YAC-1 tumor target cells in the above referred to ^51 Cr release assay as identified in EXAMPLE 32.
(1.68 mg/mouse) by intraperitoneal route.
Each value represents mean ±SD cytotoxic activity of three mice

San Angelo Virus = format: in vivo, mouse; details: compound 7 5 mg/kg at -24 h, saline days 0-6; of mice that died

`Nc1nc2c(sc(=O)n2[C@@H]2O[C@H](CO)[C@@H](O)[C@H]2O)c(=O)[nH]1` [Compound 7, 5-Amino-3-β-D-ribofuranosylthiazolo[4,5-d]pyrimidine-2,7(6H)-dione] was tested, and the “PFC/10^6 Spleen Cells” value (sheep red blood cells; 1.9 mg i.p.) was 143 ± 140 PFC/10^6 Spleen Cells, the “PFC/10^6 Spleen Cells” value (sheep red blood cells; 2.97 mg i.p.) was 307 ± 156 PFC/10^6 Spleen Cells and 165 ± 28 PFC/10^6 Spleen Cells and the “PFC/10^6 Spleen Cells” value (sheep red blood cells; 3.3 mg i.p.) was 176 ± 105 PFC/10^6 Spleen Cells. The “PFC/10^6 Spleen Cells” value (sheep red blood cells; 4.95 mg i.p.) was 467 ± 170 PFC/10^6 Spleen Cells and 433 ± 172 PFC/10^6 Spleen Cells, the “PFC/10^6 Spleen Cells” value (sheep red blood cells; 4.97 mg i.p.) was 371 ± 56 PFC/10^6 Spleen Cells and the “Postinoculation Life Span” value (P388; day 2,4) was 8.73 ± 0.59 days. The “Change in Life Span” value (P388; day 2,4) was 7 % of Control, the “Viable Cells Day 6” value (P388; day 2,4) was 66 % of Control and the “Postinoculation Life Span” value (P388; day 2-6, p < 0.001) was 9.13 ± 0.52 days. The “Change in Life Span” value (P388; day 2-6) was 12 % of Control, the “Viable Cells Day 6” value (P388; day 2-6) was 49 % of Control and the “Postinoculation Life Span” value (P388; day 2) was 8.60 ± 0.51 days. The “Change in Life Span” value (P388; day 2) was 5 % of Control, the “Viable Cells Day 6” value (P388; day 2) was 73 % of Control and the “% Cytotoxicity” value ([1]; day 3, 4320 min) was 30%. The “% Cytotoxicity” value ([1]; day 5, 7200 min) was 24%, the “% Cytotoxicity” value ([1]; day 7, 10080 min) was 32% and the “% Cytotoxicity” value ([1]; day 9, 12960 min) was 27%. For the same compound, the “cytotoxicity versus control group” value ([1]; p<0.05) was “statistically significant higherly cytotoxicity than the control group”, the “% Natural Killer Cell Cytotoxicity, + Compound 7” value (K562 tumor cells; 0.05 - 0.4 mM, 20 to 68 h, maximum response, donors 1 to 11, one line per donor in order) was 91% and 29% and 54% and 47% and 16% and 18% and 10% and 22% and 15% and 20% and 32% and the “tests with an increase in the mediated potentiation” value (K562 tumor cells; Donor 1, Table 2b) was “eight of the eight tests”. The “tests with an increase in the mediated potentiation” value (K562 tumor cells; Donor 2, Table 2b) was “six of six tests”, the “mean natural killer cell cytotoxicity” value (K562 tumor cells; PBMNC from eleven donors pretreated with compound 7 (untreated mean 11.7%)) was 32.2% and the “% Natural Killer Cell Cytotoxicity” value (K562 tumor cells; Table 22, 0.2 mM) was 10%. For the same compound, the “% Increase in Induced Natural Killer Cell Activity” value (K562 tumor cells; donors 1 to 11, one line per donor in order) was 1031% and 548% and 220% and 88% and 123% and 141% and 167% and 150% and 0% and 63% and 8%, the “potentiation in natural killer cell cytotoxicity” value (K562 tumor cells; eight of eleven donors) was “over 100%” and the “Mean Survival Time” value (Rat Coronavirus; 50) was 10.1 ± 2.3 days. For the same compound, the “Mean Survival Time” value (Rat Coronavirus; 100) was 10.2 ± 1.8 days, the “Mean Survival Time” value (Rat Coronavirus; 200) was 13.0 ± 1.0 days and the “% Natural Killer Cytoxicity” value (YAC-1 tumor target cells; 0.84 mg i.p., E:T 50:1) was 38 ± 7%. For the same compound, the “% Natural Killer Cytoxicity” value (YAC-1 tumor target cells; 0.84 mg i.p., E:T 100:1) was 48 ± 9%, the “% Natural Killer Cytoxicity” value (YAC-1 tumor target cells; 0.84 mg i.p., E:T 150:1) was 56 ± 8.5% and the “increase in natural killer cell activity” value (YAC-1 tumor target cells; 0.84 mg to 3.36 mg per mouse) was “all doses of compound 7 induced a marked increase in natural killer cell activity”. The “% Natural Killer Cytoxicity” value (YAC-1 tumor target cells; 1.68 mg i.p., E:T 50:1 (Table 4)) was 44 ± 8%, the “% Natural Killer Cytoxicity” value (YAC-1 tumor target cells; 1.68 mg i.p., E:T 100:1 (Table 4)) was 56 ± 12% and the “% Natural Killer Cytoxicity” value (YAC-1 tumor target cells; 1.68 mg i.p., E:T 150:1 (Table 4)) was 61 ± 14%. The “% Natural Killer Cytotoxicity” value (YAC-1 tumor target cells; 1 day after treatment, E:T 50:1) was 53 ± 5%, the “% Natural Killer Cytotoxicity” value (YAC-1 tumor target cells; 1 day after treatment, E:T 100:1) was 64 ± 5% and the “% Natural Killer Cytotoxicity” value (YAC-1 tumor target cells; 1 day after treatment, E:T 150:1) was 71 ± 9%. For the same compound, the “% Natural Killer Cytotoxicity” value (YAC-1 tumor target cells; 2 days after treatment, E:T 50:1) was 46 ± 9%, the “% Natural Killer Cytotoxicity” value (YAC-1 tumor target cells; 2 days after treatment, E:T 100:1) was 64 ± 5% and the “% Natural Killer Cytotoxicity” value (YAC-1 tumor target cells; 2 days after treatment, E:T 150:1) was 65 ± 7%. The “% Natural Killer Cytotoxicity” value (YAC-1 tumor target cells; 3 days after treatment, E:T 50:1) was 38 ± 6.6%, the “% Natural Killer Cytotoxicity” value (YAC-1 tumor target cells; 3 days after treatment, E:T 100:1) was 50 ± 7% and the “% Natural Killer Cytotoxicity” value (YAC-1 tumor target cells; 3 days after treatment, E:T 150:1) was 63 ± 6%. The “% Natural Killer Cytotoxicity” value (YAC-1 tumor target cells; 4 days after treatment, E:T 50:1) was 30 ± 0.1%, the “% Natural Killer Cytotoxicity” value (YAC-1 tumor target cells; 4 days after treatment, E:T 100:1) was 37 ± 1.5% and the “% Natural Killer Cytotoxicity” value (YAC-1 tumor target cells; 4 days after treatment, E:T 150:1) was 48 ± 3%. The “% Natural Killer Cytoxicity” value (YAC-1 tumor target cells; 2.52 mg i.p., E:T 50:1) was 48 ± 6.6%, the “% Natural Killer Cytoxicity” value (YAC-1 tumor target cells; 2.52 mg i.p., E:T 100:1) was 62 ± 7% and the “% Natural Killer Cytoxicity” value (YAC-1 tumor target cells; 2.52 mg i.p., E:T 150:1) was 70 ± 5%. The “% Natural Killer Cytoxicity” value (YAC-1 tumor target cells; 3.36 mg i.p., E:T 50:1) was 48 ± 4.6%, the “% Natural Killer Cytoxicity” value (YAC-1 tumor target cells; 3.36 mg i.p., E:T 100:1) was 67 ± 10% and the “% Natural Killer Cytoxicity” value (YAC-1 tumor target cells; 3.36 mg i.p., E:T 150:1) was 74 ± 6.4%. The Emax (YAC-1 tumor target cells; Mus musculus, YAC-1, 24 h, read-out: maximum response, increase in natural killer cell activity) was 382%, the “increase in natural killer cell activity” value (YAC-1 tumor target cells; single injection 1.68 mg per mouse, after 4 days) was “More than a two fold increase” and the “Mean Survival Time” value (San Angelo Virus) was 9.6 ± 1.6 days.

— patent US5041426A, “Immune system enhancing 3-β-d-ribofuranosylthiazolo[4,5-d]pyridimine nucleosides and nucleotides” (priority 1988, dated 1991)
